Laboratory results taken from EP4678638A1, “NEW E3 UBIQUITIN LIGASE LIGAND, PROTEIN DEGRADATION AGENT AND USE THEREOF” (priority 2023, dated 2024).
Where two headings read alike, the source gives them in different places.

How the values were obtained:
Format in all cases: cell-based
GSPT1 = target: T1, GSPT1 (Homo sapiens, UniProt P15170+Q96SW2); test: Western blot degradation of GSPT1 (hPBMC); settings: Table D16
T1 construct: evaluate the effects of the compounds of the present disclosure on the expression of target proteins in cells; endogenous in cells; host or cells: hPBMC
T1 sequence (P15170 whole entry): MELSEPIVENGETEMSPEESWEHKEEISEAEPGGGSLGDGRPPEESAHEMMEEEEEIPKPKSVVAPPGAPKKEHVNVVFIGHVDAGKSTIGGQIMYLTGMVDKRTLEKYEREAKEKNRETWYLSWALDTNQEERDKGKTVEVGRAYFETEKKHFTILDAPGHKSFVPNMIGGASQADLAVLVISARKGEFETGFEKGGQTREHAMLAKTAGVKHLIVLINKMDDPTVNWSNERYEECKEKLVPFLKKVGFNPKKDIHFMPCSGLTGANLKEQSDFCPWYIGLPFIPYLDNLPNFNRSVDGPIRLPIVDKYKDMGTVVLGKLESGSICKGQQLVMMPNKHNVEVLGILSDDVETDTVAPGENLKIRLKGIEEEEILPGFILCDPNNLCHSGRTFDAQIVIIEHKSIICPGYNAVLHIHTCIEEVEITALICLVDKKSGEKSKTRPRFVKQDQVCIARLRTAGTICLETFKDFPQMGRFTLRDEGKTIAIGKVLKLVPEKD
T1 sequence (Q96SW2 whole entry): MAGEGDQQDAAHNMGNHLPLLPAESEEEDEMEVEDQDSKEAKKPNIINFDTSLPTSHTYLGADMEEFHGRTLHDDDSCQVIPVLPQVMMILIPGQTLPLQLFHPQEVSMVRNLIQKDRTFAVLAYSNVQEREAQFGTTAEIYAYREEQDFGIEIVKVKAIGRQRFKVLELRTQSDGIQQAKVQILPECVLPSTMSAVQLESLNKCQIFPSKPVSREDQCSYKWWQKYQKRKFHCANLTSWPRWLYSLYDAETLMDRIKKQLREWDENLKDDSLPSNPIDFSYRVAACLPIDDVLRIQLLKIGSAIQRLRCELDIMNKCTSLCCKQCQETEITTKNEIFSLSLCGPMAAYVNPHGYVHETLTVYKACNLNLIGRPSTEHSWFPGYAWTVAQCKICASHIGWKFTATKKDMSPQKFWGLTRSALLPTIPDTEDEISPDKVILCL
T1 sequence (Q16531 whole entry partner): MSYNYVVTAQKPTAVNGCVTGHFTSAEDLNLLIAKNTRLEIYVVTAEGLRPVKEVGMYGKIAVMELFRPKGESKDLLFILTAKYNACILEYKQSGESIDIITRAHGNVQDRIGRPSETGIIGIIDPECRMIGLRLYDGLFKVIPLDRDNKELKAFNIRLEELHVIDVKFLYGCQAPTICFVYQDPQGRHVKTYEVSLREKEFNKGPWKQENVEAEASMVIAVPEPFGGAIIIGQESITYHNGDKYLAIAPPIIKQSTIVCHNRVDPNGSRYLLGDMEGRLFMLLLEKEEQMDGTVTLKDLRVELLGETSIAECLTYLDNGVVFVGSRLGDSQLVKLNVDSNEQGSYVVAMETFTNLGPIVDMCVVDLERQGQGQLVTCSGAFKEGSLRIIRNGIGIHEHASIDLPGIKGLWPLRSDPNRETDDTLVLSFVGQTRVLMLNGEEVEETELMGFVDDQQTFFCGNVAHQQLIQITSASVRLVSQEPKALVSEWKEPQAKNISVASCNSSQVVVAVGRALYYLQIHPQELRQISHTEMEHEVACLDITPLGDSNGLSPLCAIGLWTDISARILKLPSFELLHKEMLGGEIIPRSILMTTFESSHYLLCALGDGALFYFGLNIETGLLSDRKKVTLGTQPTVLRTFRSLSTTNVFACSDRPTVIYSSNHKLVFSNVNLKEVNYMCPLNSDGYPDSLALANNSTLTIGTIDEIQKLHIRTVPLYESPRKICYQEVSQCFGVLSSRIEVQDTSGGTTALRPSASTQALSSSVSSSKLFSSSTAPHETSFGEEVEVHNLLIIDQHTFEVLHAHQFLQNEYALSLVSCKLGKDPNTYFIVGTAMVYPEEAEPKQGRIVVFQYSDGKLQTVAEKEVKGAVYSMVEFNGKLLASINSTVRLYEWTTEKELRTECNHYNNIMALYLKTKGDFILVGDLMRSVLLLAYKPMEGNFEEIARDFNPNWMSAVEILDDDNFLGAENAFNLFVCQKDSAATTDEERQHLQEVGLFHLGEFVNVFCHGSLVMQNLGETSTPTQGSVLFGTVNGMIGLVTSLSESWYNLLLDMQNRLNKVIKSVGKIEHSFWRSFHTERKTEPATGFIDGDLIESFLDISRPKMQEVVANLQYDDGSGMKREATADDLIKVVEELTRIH
Method in brief: (§1)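 Degradation is assessed by immunoblotting lysates of treated cells. Target bands are quantified by grayscale and normalised to an internal control, so degradation rate equals 100% minus % remaining.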

IKZF3 = target: T2, IKZF3 (Homo sapiens, UniProt Q96SW2+Q9UKT9); test: Western blot degradation of IKZF3 (hPBMC); settings: Table D16
T2 construct: evaluate the effects of the compounds of the present disclosure on the expression of target proteins in cells; endogenous in cells; host or cells: hPBMC
T2 sequence (Q9UKT9 whole entry): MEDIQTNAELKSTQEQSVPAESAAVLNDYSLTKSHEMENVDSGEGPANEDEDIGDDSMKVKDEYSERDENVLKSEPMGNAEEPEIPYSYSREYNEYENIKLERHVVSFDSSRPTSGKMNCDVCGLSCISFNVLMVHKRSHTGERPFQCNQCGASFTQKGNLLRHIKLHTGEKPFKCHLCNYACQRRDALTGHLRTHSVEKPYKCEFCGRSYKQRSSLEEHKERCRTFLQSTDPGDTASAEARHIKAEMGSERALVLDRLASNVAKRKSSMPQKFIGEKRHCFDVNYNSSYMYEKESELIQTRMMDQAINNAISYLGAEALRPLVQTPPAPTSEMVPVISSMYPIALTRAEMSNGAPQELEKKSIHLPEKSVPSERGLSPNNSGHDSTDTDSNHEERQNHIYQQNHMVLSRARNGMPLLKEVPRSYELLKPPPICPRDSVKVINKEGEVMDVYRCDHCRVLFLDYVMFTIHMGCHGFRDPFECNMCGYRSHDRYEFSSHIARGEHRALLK
T2 sequence (Q96SW2 whole entry): as the sequence (Q96SW2 whole entry) above
T2 sequence (Q16531 whole entry partner): as the sequence (Q16531 whole entry partner) above
Method in brief: as §1

IKZF1 = target: T3, IKZF1 (Homo sapiens, UniProt Q13422+Q96SW2); test: Western blot degradation of IKZF1 (hPBMC); settings: Table D16
T3 construct: evaluate the effects of the compounds of the present disclosure on the expression of target proteins in cells; endogenous in cells; host or cells: hPBMC
Method in brief: as §1

IKZF2 = target: T4, IKZF2 (Homo sapiens, UniProt Q96SW2+Q9UKS7); test: Western blot degradation of IKZF2 (hPBMC); settings: Table D16
T4 construct: evaluate the effects of the compounds of the present disclosure on the expression of target proteins in cells; endogenous in cells; host or cells: hPBMC
T4 sequence (Q9UKS7 whole entry): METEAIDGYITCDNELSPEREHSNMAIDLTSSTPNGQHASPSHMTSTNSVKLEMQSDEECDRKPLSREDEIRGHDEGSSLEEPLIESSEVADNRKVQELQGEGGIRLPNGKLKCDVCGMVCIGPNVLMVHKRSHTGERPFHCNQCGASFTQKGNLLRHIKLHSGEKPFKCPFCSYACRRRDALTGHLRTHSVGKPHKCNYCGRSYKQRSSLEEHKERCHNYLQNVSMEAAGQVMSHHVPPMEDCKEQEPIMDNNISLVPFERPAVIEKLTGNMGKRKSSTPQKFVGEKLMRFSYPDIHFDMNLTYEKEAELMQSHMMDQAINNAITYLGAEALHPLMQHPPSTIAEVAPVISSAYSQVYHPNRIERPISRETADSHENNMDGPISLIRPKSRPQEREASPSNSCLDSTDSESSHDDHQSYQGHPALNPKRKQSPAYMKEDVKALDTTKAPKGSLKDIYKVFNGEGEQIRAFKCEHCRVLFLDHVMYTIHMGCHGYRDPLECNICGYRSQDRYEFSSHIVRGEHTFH
T4 sequence (Q96SW2 whole entry): as the sequence (Q96SW2 whole entry) above
T4 sequence (Q16531 whole entry partner): as the sequence (Q16531 whole entry partner) above
Method in brief: as §1

WEE1 = target: T5, WEE1 (Homo sapiens, UniProt P30291+Q96SW2); test: Western blot degradation of WEE1 (hPBMC); settings: Table D16
T5 construct: evaluate the effects of the compounds of the present disclosure on the expression of target proteins in cells; endogenous in cells; host or cells: hPBMC
T5 sequence (P30291 whole entry): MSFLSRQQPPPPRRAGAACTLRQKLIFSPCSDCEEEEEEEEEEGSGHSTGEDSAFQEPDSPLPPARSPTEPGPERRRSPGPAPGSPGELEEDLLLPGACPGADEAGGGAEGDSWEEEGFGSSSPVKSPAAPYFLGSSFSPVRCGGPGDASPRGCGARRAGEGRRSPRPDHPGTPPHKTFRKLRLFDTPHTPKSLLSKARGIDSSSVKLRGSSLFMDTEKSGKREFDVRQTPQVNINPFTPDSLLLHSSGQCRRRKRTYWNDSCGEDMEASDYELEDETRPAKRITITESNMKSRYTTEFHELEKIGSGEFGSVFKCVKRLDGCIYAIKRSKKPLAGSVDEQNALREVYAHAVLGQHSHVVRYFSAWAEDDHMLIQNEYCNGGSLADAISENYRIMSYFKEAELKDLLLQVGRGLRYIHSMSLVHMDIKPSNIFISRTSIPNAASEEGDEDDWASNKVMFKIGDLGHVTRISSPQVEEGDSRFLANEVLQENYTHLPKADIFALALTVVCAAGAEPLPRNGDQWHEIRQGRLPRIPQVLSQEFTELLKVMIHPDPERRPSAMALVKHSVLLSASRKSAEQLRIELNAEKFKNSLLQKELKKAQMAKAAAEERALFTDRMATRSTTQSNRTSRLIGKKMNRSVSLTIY
T5 sequence (Q96SW2 whole entry): as the sequence (Q96SW2 whole entry) above
T5 sequence (Q16531 whole entry partner): as the sequence (Q16531 whole entry partner) above
Method in brief: as §1

MCF7 = test: CCK-8 proliferation, MCF7 (MCF-7); settings: Homo sapiens
Method in brief: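 CCK-8 viability readout; IC50 from growth-inhibition curve fitting. Cells plated, dosed 24h later with a 10-point series, top 10µM, 5-fold steps. Culture at 37°C, 5% CO2.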

CK1a = target: T6, CK1a (Homo sapiens, UniProt P48729+Q96SW2); test: Western blot degradation of CK1a (hPBMC); settings: Table D16
T6 construct: evaluate the effects of the compounds of the present disclosure on the expression of target proteins in cells; endogenous in cells; host or cells: hPBMC
T6 sequence (P48729 whole entry): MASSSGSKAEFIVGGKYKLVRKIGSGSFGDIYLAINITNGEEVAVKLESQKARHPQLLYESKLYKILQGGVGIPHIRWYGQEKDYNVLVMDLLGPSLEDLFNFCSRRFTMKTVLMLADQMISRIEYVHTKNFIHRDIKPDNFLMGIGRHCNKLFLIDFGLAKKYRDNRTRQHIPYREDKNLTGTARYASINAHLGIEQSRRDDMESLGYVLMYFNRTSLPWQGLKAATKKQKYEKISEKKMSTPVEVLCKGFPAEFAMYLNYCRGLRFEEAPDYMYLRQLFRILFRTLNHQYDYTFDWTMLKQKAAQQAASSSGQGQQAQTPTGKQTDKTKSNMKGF
T6 sequence (Q96SW2 whole entry): as the sequence (Q96SW2 whole entry) above
T6 sequence (Q16531 whole entry partner): as the sequence (Q16531 whole entry partner) above
Method in brief: as §1

[1] = MCF7, CCK-8, read-out: Inhibitory activity (IC50) on tumor cell proliferation, MCF-7

For `O=Cc1cncc(NC2CCC(=O)NC2=O)c1` (centres unmarked) [GT-07554, 5-((2,6-Dioxopiperidin-3-yl)amino)nicotinaldehyde], the “Degradation of substrate protein GSPT1 (substrate protein remaining %)” value (GSPT1) was “B (B is defined as substrate protein remaining % > 80%)”, the “Degradation of substrate protein IKZF3 (substrate protein remaining %)” value (IKZF3) was “A (A is defined as 0% ≤ substrate protein remaining % ≤ 80%)” and the “Degradation of substrate protein IKZF1 (substrate protein remaining %)” value (IKZF1) was “A (A is defined as 0% ≤ substrate protein remaining % ≤ 80%)”. For the same compound, the “Degradation of substrate protein IKZF2 (substrate protein remaining %)” value (IKZF2) was “A (A is defined as 0% ≤ substrate protein remaining % ≤ 80%)”, the “Degradation of substrate protein WEE1 (substrate protein remaining %)” value (WEE1) was “A (A is defined as 0% ≤ substrate protein remaining % ≤ 80%)” and the IC50 (MCF7; [1]) was 1000 to 5000 nM. For the same compound, the “Degradation of substrate protein CKla (substrate protein remaining %)” value (CK1a) was “A (A is defined as 0% ≤ substrate protein remaining % ≤ 80%)”.
For `O=C1CCC(Nc2cc(CO)c(F)cn2)C(=O)N1` (centres unmarked) [GT-07725, 3-((5-fluoro-4-(hydroxymethyl)pyridin-2-yl)amino)piperidine-2,6-dione], the “Degradation of substrate protein GSPT1 (substrate protein remaining %)” value (GSPT1) was “A (A is defined as 0% ≤ substrate protein remaining % ≤ 80%)”, the “Degradation of substrate protein IKZF3 (substrate protein remaining %)” value (IKZF3) was “A (A is defined as 0% ≤ substrate protein remaining % ≤ 80%)” and the “Degradation of substrate protein IKZF1 (substrate protein remaining %)” value (IKZF1) was “A (A is defined as 0% ≤ substrate protein remaining % ≤ 80%)”. The “Degradation of substrate protein IKZF2 (substrate protein remaining %)” value (IKZF2) was “A (A is defined as 0% ≤ substrate protein remaining % ≤ 80%)”, the “Degradation of substrate protein WEE1 (substrate protein remaining %)” value (WEE1) was “A (A is defined as 0% ≤ substrate protein remaining % ≤ 80%)” and the IC50 (MCF7; [1]) was 1000 to 5000 nM. The “Degradation of substrate protein CKla (substrate protein remaining %)” value (CK1a) was “B (B is defined as substrate protein remaining % > 80%)”.
For `O=C1CCC(Nc2cc(CO)ccn2)C(=O)N1` (centres unmarked) [GT-07366, 3-((4-(Hydroxymethyl)pyridin-2-yl)amino)piperidine-2,6-dione], the “Degradation of substrate protein GSPT1 (substrate protein remaining %)” value (GSPT1) was “A (A is defined as 0% ≤ substrate protein remaining % ≤ 80%)”, the “Degradation of substrate protein IKZF3 (substrate protein remaining %)” value (IKZF3) was “B (B is defined as substrate protein remaining % > 80%)” and the “Degradation of substrate protein IKZF1 (substrate protein remaining %)” value (IKZF1) was “B (B is defined as substrate protein remaining % > 80%)”. The “Degradation of substrate protein IKZF2 (substrate protein remaining %)” value (IKZF2) was “B (B is defined as substrate protein remaining % > 80%)”, the “Degradation of substrate protein WEE1 (substrate protein remaining %)” value (WEE1) was “B (B is defined as substrate protein remaining % > 80%)” and the IC50 (MCF7; [1]) was 1000 to 5000 nM. The “Degradation of substrate protein CKla (substrate protein remaining %)” value (CK1a) was “A (A is defined as 0% ≤ substrate protein remaining % ≤ 80%)”.
For `O=C1CCN(c2cnc(CO)c(F)c2)C(=O)N1` [GT-07555, 1-(5-Fluoro-6-(hydroxymethyl)pyridin-3-yl)dihydropyrimidine-2,4(1H,3H)-dione], the “Degradation of substrate protein GSPT1 (substrate protein remaining %)” value (GSPT1) was “A (A is defined as 0% ≤ substrate protein remaining % ≤ 80%)”, the “Degradation of substrate protein IKZF3 (substrate protein remaining %)” value (IKZF3) was “A (A is defined as 0% ≤ substrate protein remaining % ≤ 80%)” and the “Degradation of substrate protein IKZF1 (substrate protein remaining %)” value (IKZF1) was “A (A is defined as 0% ≤ substrate protein remaining % ≤ 80%)”. For the same compound, the “Degradation of substrate protein IKZF2 (substrate protein remaining %)” value (IKZF2) was “A (A is defined as 0% ≤ substrate protein remaining % ≤ 80%)”, the “Degradation of substrate protein WEE1 (substrate protein remaining %)” value (WEE1) was “A (A is defined as 0% ≤ substrate protein remaining % ≤ 80%)” and the IC50 (MCF7; [1]) was 1000 to 5000 nM. The “Degradation of substrate protein CKla (substrate protein remaining %)” value (CK1a) was “A (A is defined as 0% ≤ substrate protein remaining % ≤ 80%)”.
In the case of `CC(C)(C)[Si](C)(C)OCc1ccc(NC2CCC(=O)NC2=O)nn1` (centres unmarked) [GT-07726, 3-((6-(((tert-Butyldimethylsilyl)oxy)methyl)pyridazin-3-yl)amino)piperidine-2,6-dione], the “Degradation of substrate protein GSPT1 (substrate protein remaining %)” value (GSPT1) is reported as “B (B is defined as substrate protein remaining % > 80%)”, the “Degradation of substrate protein IKZF3 (substrate protein remaining %)” value (IKZF3) is reported as “A (A is defined as 0% ≤ substrate protein remaining % ≤ 80%)” and the “Degradation of substrate protein IKZF1 (substrate protein remaining %)” value (IKZF1) is reported as “A (A is defined as 0% ≤ substrate protein remaining % ≤ 80%)”. For the same compound, the “Degradation of substrate protein IKZF2 (substrate protein remaining %)” value (IKZF2) was “A (A is defined as 0% ≤ substrate protein remaining % ≤ 80%)”, the “Degradation of substrate protein WEE1 (substrate protein remaining %)” value (WEE1) was “A (A is defined as 0% ≤ substrate protein remaining % ≤ 80%)” and the IC50 (MCF7; MCF7, read-out: Inhibitory activity (IC50) on tumor cell proliferation, MCF-7) was 1000 to 5000 nM. The “Degradation of substrate protein CKla (substrate protein remaining %)” value (CK1a) was “B (B is defined as substrate protein remaining % > 80%)”.
